Test results: ChEMBL document CHEMBL1150532, “Syntheses and antifilarial profile of 5-amino and 5,8-diamino-isoquinoline derivatives: A new class of antifilarial agents” (1996)

Columns and labels:
Assay type in all cases: functional
Mastomys natalensis [1] = test: Compound was evaluated in vivo for microfilaricidal activity against Acanthocheilonema viteae infection in Mastomys natalensis at dose 50 mg/kg *5days (i.p.); conditions: route intraperitoneal
Acanthocheilonema viteae [2] = test: In vitro inhibition of Tubulin content in worms at concentration 1.0 uM
Mastomys natalensis [3] = test: Compound was evaluated in vivo for microfilaricidal activity against Acanthocheilonema viteae infection in Mastomys natalensis; 0 represents inactive
Acanthocheilonema viteae [4] = test: In vitro increase in lactate production at concentration 1.0 uM
Acanthocheilonema viteae [5] = test: Antifilarial activity was measured by percent sterilization of A. viteae at dose 50 mg/kg *5days (i.p.); 0 represents inactive; conditions: route intraperitoneal
Acanthocheilonema viteae [6] = test: In vitro inhibition of glucose uptake by Acanthocheilonema viteae at concentration 1.0 uM
Acanthocheilonema viteae [7] = test: In vitro inhibition of ATP content in worms at concentration 1.0 uM
Mastomys natalensis [8] = test: Compound was evaluated in vivo for microfilaricidal activity against Acanthocheilonema viteae infection in Mastomys natalensis at dose 350 mg/kg/5 days (i.p.); conditions: route intraperitoneal
Mastomys natalensis [9] = test: Compound was evaluated in vivo for microfilaricidal activity against Acanthocheilonema viteae infection in Mastomys natalensis at dose 50 mg/kg/5days (i.p.); 0 represents inactive; conditions: route intraperitoneal
Acanthocheilonema viteae [10] = test: Antifilarial activity was measured by percent sterilization of A. viteae at dose 50 mg/kg/5days (i.p.); 0 represents inactive; conditions: route intraperitoneal
Mastomys natalensis [11] = test: Compound was evaluated in vivo for microfilaricidal activity against Acanthocheilonema viteae infection in Mastomys natalensis at dose 50 mg/kg/5days (i.p.); conditions: route intraperitoneal
Mastomys natalensis [12] = test: Compound was evaluated in vivo for microfilaricidal activity against Acanthocheilonema viteae infection in Mastomys natalensis
Acanthocheilonema viteae [13] = test: Antifilarial activity was measured by percent sterilization of A. viteae at dose 50 mg/kg *5days (i.p.); conditions: route intraperitoneal

Row | SMILES | Activity (Mastomys natalensis [1]) | Tubulin content (Acanthocheilonema viteae [2]) [pmol/mg] | Activity (Mastomys natalensis [3]) | Lactate production (Acanthocheilonema viteae [4]) [µM/mg] | Sterility (Acanthocheilonema viteae [5]) [%] | Glucose uptake (Acanthocheilonema viteae [6]) [µM/mg] | ATP content (Acanthocheilonema viteae [7]) [pmol/mg] | Activity (Mastomys natalensis [8]) | Activity (Mastomys natalensis [9]) | Sterility (Acanthocheilonema viteae [10]) [%] | Activity (Mastomys natalensis [11]) | Activity (Mastomys natalensis [12]) | Sterility (Acanthocheilonema viteae [13]) [%]
1 | O=[N+]([O-])c1ccc(N2CCOCC2)c2ccncc12 | 81 | 38.5 | 0 | 7.19 | 0 | 6.15 | 39.1 |  |  |  |  |  | 
2 | CCN(CC)C(=O)N1CCN(C)CC1.O=C(O)CC(O)(CC(=O)O)C(=O)O [DIETHYLCARBAMAZINE CITRATE] |  |  |  |  |  |  |  | 90 | 0 | 0 |  |  | 
3 | O=C1CN(c2cccc3cnccc23)C2CC2O1 (stereo unspecified) |  | 35.4 |  | 6.42 | 0 | 6.09 | 74.2 |  |  |  | 34 | 0 | 
4 | OC1CC1Nc1cccc2cnccc12 (stereo unspecified) |  | 70.2 | 0 | 7.42 |  | 6.67 | 108 |  | 0 |  |  |  | 31
5 | Clc1ccc2c(Nc3ccc(N4CCOCC4)c4ccncc34)ccnc2c1 |  | 45.1 |  | 7.3 |  | 6.26 | 37.9 |  |  | 0 | 76 | 60 | 
